Test: mn = molality of the nth substance listed, in mol/kg
Conditions: 101 kPa, Liquid; for mass density: Vibrating tube method; for speed of sound: Pulse-echo method

CNCC(=O)O [sarcosine] + O
Conditions | mass density, 288.15 K [kg/m3] | mass density, 293.15 K [kg/m3] | mass density, 298.15 K [kg/m3] | mass density, 303.15 K [kg/m3] | mass density, 308.15 K [kg/m3] | speed of sound, 298.15 K [m/s]
m1 = 0.05883 | 1000.7 | 999.78 | 998.598 | 997.176 | 995.552 | 1500.3
m1 = 0.1166 | 1002.25 | 1001.31 | 1000.12 | 998.68 | 997.042 | 1503.9
m1 = 0.1777 | 1003.88 | 1002.92 | 1001.7 | 1000.25 | 998.599 | 1507.7
m1 = 0.2363 | 1005.42 | 1004.43 | 1003.2 | 1001.74 | 1000.07 | 1511.3
m1 = 0.2987 | 1007.05 | 1006.03 | 1004.79 | 1003.31 | 1001.63 | 1515.2

C[N+](C)(C)[O-] [trimethylamine oxide] + O
Conditions | mass density, 288.15 K [kg/m3] | mass density, 293.15 K [kg/m3] | mass density, 298.15 K [kg/m3] | mass density, 303.15 K [kg/m3] | mass density, 308.15 K [kg/m3] | speed of sound, 298.15 K [m/s]
m1 = 0.0592 | 999.725 | 998.807 | 997.629 | 996.213 | 994.58 | 1500.9
m1 = 0.1182 | 1000.29 | 999.358 | 998.163 | 996.73 | 995.083 | 1505.1
m1 = 0.1768 | 1000.88 | 999.919 | 998.707 | 997.258 | 995.602 | 1509.2
m1 = 0.2361 | 1001.44 | 1000.47 | 999.234 | 997.769 | 996.09 | 1513.3
m1 = 0.2958 | 1002.09 | 1001.09 | 999.839 | 998.357 | 996.661 | 1517.4

CN(C)CC(=O)O [(Dimethylamino)acetic acid] + O
Conditions | mass density, 288.15 K [kg/m3] | mass density, 293.15 K [kg/m3] | mass density, 298.15 K [kg/m3] | mass density, 303.15 K [kg/m3] | mass density, 308.15 K [kg/m3] | speed of sound, 298.15 K [m/s]
m1 = 0.05966 | 1000.46 | 999.537 | 998.354 | 996.925 | 995.303 | 1500.9
m1 = 0.119 | 1001.8 | 1000.85 | 999.646 | 998.203 | 996.574 | 1505.1
m1 = 0.1791 | 1003.14 | 1002.16 | 1000.94 | 999.477 | 997.836 | 1509.4
m1 = 0.2399 | 1004.48 | 1003.48 | 1002.23 | 1000.75 | 999.104 | 1513.6
m1 = 0.3007 | 1005.8 | 1004.78 | 1003.51 | 1002.02 | 1000.37 | 1517.9

C[N+](C)(C)CC(=O)[O-] [(trimethylammonio)acetate] + O
Conditions | mass density, 288.15 K [kg/m3] | mass density, 293.15 K [kg/m3] | mass density, 298.15 K [kg/m3] | mass density, 303.15 K [kg/m3] | mass density, 308.15 K [kg/m3] | speed of sound, 298.15 K [m/s]
m1 = 0.06226 | 1000.25 | 999.33 | 998.149 | 996.726 | 995.1 | 1501.3
m1 = 0.125 | 1001.4 | 1000.46 | 999.253 | 997.814 | 996.18 | 1505.9
m1 = 0.1884 | 1002.54 | 1001.57 | 1000.35 | 998.899 | 997.254 | 1510.5
m1 = 0.2532 | 1003.69 | 1002.7 | 1001.46 | 999.994 | 998.337 | 1515.2
m1 = 0.3185 | 1004.83 | 1003.83 | 1002.56 | 1001.08 | 999.42 | 1519.9

NCC(=O)O [2-aminoacetic acid] + O
Conditions | mass density, 288.15 K [kg/m3] | mass density, 293.15 K [kg/m3] | mass density, 298.15 K [kg/m3] | mass density, 303.15 K [kg/m3] | mass density, 308.15 K [kg/m3] | speed of sound, 298.15 K [m/s]
m1 = 0.06261 | 1001.13 | 1000.21 | 999.029 | 997.604 | 995.978 | 1499.9
m1 = 0.1199 | 1002.98 | 1002.03 | 1000.83 | – | 997.751 | 1502.8
m1 = 0.1769 | 1004.8 | 1003.84 | 1002.62 | 1001.15 | 999.494 | 1505.8
m1 = 0.2352 | 1006.65 | 1005.66 | 1004.42 | 1002.94 | 1001.28 | 1508.8
m1 = 0.2963 | 1008.56 | 1007.54 | 1006.29 | 1004.79 | 1003.12 | 1512

— the NIST ThermoML archive (doi:10.1016/j.jct.2013.01.023)
